Assay results from patent US20140057851A1, “Anti-Angiogenic Gene Therapy With Soluble VEGF Receptors -1, -2 and -3 Together With Paclitaxel Prolongs Survival Of Mice With Human Ovarian Carcinoma” (WKD Holding Oy, priority 2012, published 2014).

Legend:
[1] = test system: intratumoral microvessels of SKOV-3m tumors; assay: Microvessel and lymphatic vessel measurements in tumors (CD34, LYVE-1 immunostaining); assay type: in vivo, Balb/cA-nu female nude mice; settings: result in words
Procedure: Photographs of histological sections were taken and processed using an Olympus AX70 microscope (Olympus Optical, Japan), and analySIS (Soft Imaging System, GmbH, Germany) and PhotoShop (Adobe) softwares. Microvessel density (MVD) and total microvascular area (%) of the tumors (TVA) were measured from CD34-immunostained sections using analySIS software at 100× magnification in a blinded manner (FIG. 3b). Six to ten different fields which represented maximum microvessel density areas were selected from each tumor. Necrotic areas were avoided. In addition, the total number of LYVE-1 positive lymphatic vessels per section was counted. Means±SEM of the measurements are reported.

[2] = Clinical chemistry: plasma ALT and creatinine; settings: mean ± SEM
Source text: Plasma samples were collected at 6, 13, 20 and 27 days after the gene transfer and when the mice were sacrificed. Alanine aminotransferase (ALT) and creatinine (Crea) were monitored using routine clinical chemistry assays at Kuopio University Hospital Central Laboratory. Enzyme-linked immunosorbent assays (Quantikine; R&D Systems, Minneapolis, Minn.) were used to detect the presence of human sVEGFRs in plasma samples.
Safety was judged by the assessment of the histological samples of liver, spleen, kidneys and lungs as well as by the analysis of plasma ALT and Crea levels.

Question: With Bevacizumab as the molecule, how does the “effect on angiogenesis by microvessel measurements” value [1] read?
Answer: did not have any effect

Question: What about the ALT ([2]; Day 6 after treatment) of the same molecule?
Answer: 12.9 ± 3 U/l

Question: And the Crea ([2]; Day 6 after treatment)?
Answer: 7.4 ± 1 um/l

Question: What about the ALT ([2]; Day 13 after treatment) of the same molecule?
Answer: 56.3 ± 22 U/l

Question: What about the Crea ([2]; Day 13 after treatment) of the same molecule?
Answer: 12.4 ± 4 um/l

Question: For N.N.O=C([O-])C1(C(=O)[O-])CCC1.[Pt+2] [Carboplatin], which ALT ([2]; Day 6 after treatment) is on record?
Answer: 10.0 ± 1 U/l

Question: What about the Crea ([2]; Day 6 after treatment) of the same molecule?
Answer: 14.4 ± 3 um/l

Question: What about the ALT ([2]; Day 13 after treatment) of the same molecule?
Answer: 399 ± 209 U/l

Question: What about the Crea ([2]; Day 13 after treatment) of the same molecule?
Answer: 4.9 ± 2 um/l
